PubChem BioAssay (NCI)
Where “and” joins values, the source holds several entries; their conditions need not be identical. Identical values can stand only once.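 How tested: cells in 96-well plates exposed to compound for 48 hours at five concentrations. GI50 marks 50% less growth. At the TGI there is no net growth.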

Tests used:
Assay in all cases: NCI anticancer screen, dose series, 48 h
SK-MEL-2 melanoma = test system: SK-MEL-2 melanoma
COLO 205 colon = test system: COLO 205 colon
HCT-15 colon = test system: HCT-15 colon
MALME-3M melanoma = test system: MALME-3M melanoma
SF-268 CNS = test system: SF-268 CNS
M19-MEL melanoma = test system: M19-MEL melanoma
OVCAR-8 ovarian = test system: OVCAR-8 ovarian
MCF7 breast = test system: MCF7 breast
SR leukemia = test system: SR leukemia

| SMILES | TGI (SK-MEL-2 melanoma) | TGI (COLO 205 colon) | TGI (HCT-15 colon) | TGI (MALME-3M melanoma) | TGI (SF-268 CNS) | TGI (M19-MEL melanoma) [µM] | TGI (OVCAR-8 ovarian) | GI50 (MCF7 breast) | TGI (MCF7 breast) | GI50 (SK-MEL-2 melanoma) | GI50 (COLO 205 colon) | GI50 (HCT-15 colon) | GI50 (MALME-3M melanoma) | GI50 (SF-268 CNS) | GI50 (SR leukemia) | TGI (SR leukemia) | GI50 (OVCAR-8 ovarian) |
| --- | --- | --- | --- | --- | --- | --- | --- | --- | --- | --- | --- | --- | --- | --- | --- | --- | --- |
| CC(=O)CCCCO | > 100 µM | > 100 µM | > 100 µM | > 100 µM | > 100 µM | > 100 | > 100 µM | – | – | – | – | – | – | – | – | – | – |
| COc1cccc2c1C(=O)c1c(O)c3c(c(O)c1C2=O)C[C@@](O)(C(=O)CO)C[C@@H]3OC1C[C@H](N)[C@H](O)[C@H](C)O1 (some centres undefined) | 5.47 µM | 0.446 µM | > 50 µM | 0.145 µM | 0.982 µM | – | > 16.2 µM | 0.00926 µM | 4.15 µM | 0.141 µM | 0.0904 µM | 0.906 µM | 0.0462 µM | 0.0616 µM | 0.00558 µM | 0.826 µM | 0.067 µM |
| O=C(O)c1cc2cc(OCc3ccccc3)c(OCc3ccccc3)cc2[nH]1 | 44.7 µM | 36.1 µM | 36.4 µM | 72.6 µM | 79.7 µM | – | 95.9 µM | 21.8 µM | 55.1 µM | 21.4 µM | 19.9 µM | 16.3 µM | 25.9 µM | 26.4 µM | 21.8 µM | > 100 µM | 26.9 µM |
| CCCCCCCCCCCCSC(=N)N | 36.2 µM | 3.72 µM | 11.5 µM | 29.5 µM | 25.8 µM | – | 23.4 µM | 3.44 µM | 15.5 µM | 19.5 µM | 1.98 µM | 2.96 µM | 15 µM | 7.82 µM | 1.79 µM | 4.4 µM | 5.77 µM |
| c1ccc(-c2nc(-c3ccccc3)c(-c3ccccc3)[nH]2)cc1 | > 100 µM | > 100 µM | > 100 µM | > 100 µM | > 100 µM | – | > 100 µM | – | > 100 µM | – | – | – | – | – | – | 46.3 µM | – |
| NC1=NC(c2ccc(Cl)cc2)C2=C(N1)/C(=C/c1ccc(Cl)cc1)CCC2 (centres undefined) | > 70.2 µM | 19.9 µM | 26.9 µM | 50.8 µM | > 38.9 µM | – | > 32.4 µM | 3.62 µM | > 100 µM | 37.7 µM | 6.17 µM | 9.13 µM | 19.4 µM | 7.35 µM | 3.69 µM | 9.84 µM | 4.24 µM |
| Cn1cc(-c2cnc3ccc4ccc(CS(=O)(=O)NCc5ccccn5)cc4c(=O)c3c2)cn1 | 53.4 µM | > 55.8 µM | 37.1 µM | 73.1 µM | > 100 µM | – | > 100 µM | 7.7 µM | > 100 µM | 11.8 µM | 18.6 µM | 5.67 µM | 21.3 µM | 20.9 µM | 3.17 µM | > 100 µM | 18.8 µM |
| COc1cccc(/C=C/c2cnc3ccccc3n2)c1OC | 98.5 µM | > 100 µM | 92.7 µM | > 100 µM | > 100 µM | – | > 100 µM | – | > 100 µM | – | – | – | – | – | – | > 100 µM | – |
| CCOC(=O)/C=C/C(C(=O)/C=C/c1ccc(O)c(OC)c1)=C(O)\C=C\c1ccc(O)c(OC)c1 | 26.2 µM | 12.8 µM | 6.99 µM | > 100 µM | 95.1 µM | – | 5.91 µM | 7.52 µM | 67.5 µM | 5.17 µM | 3.14 µM | 2.27 µM | 9.93 µM | 11.1 µM | 11 µM | > 100 µM | 2.21 µM |
| NS(=O)(=O)c1cccc(N=Cc2c(O)[nH]c3ccccc23)c1 | > 25 µM | > 25 µM | > 25 µM | > 25 µM | > 25 µM | – | > 25 µM | > 25 µM | > 25 µM | > 25 µM | > 25 µM | > 25 µM | > 25 µM | > 25 µM | > 25 µM | > 25 µM | > 25 µM |
| COc1ccc(Cl)cc1NC(=O)C(Br)C(Br)C(=O)O (centres undefined) | 26.2 µM | 34 µM | 32.2 µM | 28.8 µM | 16.8 µM | – | > 100 µM | 3.23 µM | > 47.9 µM | 7.54 µM | 18.1 µM | 10.2 µM | 9.88 µM | 4.33 µM | 3.43 µM | > 100 µM | 9.01 µM |
| Cc1ccc2c(O)c(O)cc(NC(C)CCCN)c2n1 (centres undefined) | > 91.9 µM | 42.5 µM | > 100 µM | 41.6 µM | 66.2 µM | – | > 100 µM | 2.65 µM | 9.82 µM | > 45.9 µM | 3.39 µM | > 79.1 µM | 18.7 µM | 16.7 µM | 30.5 µM | 79.3 µM | 4.35 µM |
| COc1cc(-c2nc3sc4c(c3c(=O)[nH]2)CCCCCC4)cc(OC)c1OC | 7.5 µM | 10.3 µM | > 33.2 µM | 20.5 µM | > 33.2 µM | – | > 33.2 µM | 0.903 µM | > 33.2 µM | 1.11 µM | 1.16 µM | 0.649 µM | 4.32 µM | 2.97 µM | 0.776 µM | > 33.2 µM | 1.52 µM |
| COc1cc(/C=C2\CN(C)C/C(=C\c3cc(CN4CCCCC4)c(O)c(OC)c3)C2=O)cc(CN2CCCCC2)c1O | 13.2 µM | 3.74 µM | 12.7 µM | 19.6 µM | 17.4 µM | – | > 100 µM | 2.93 µM | 13.9 µM | 3.53 µM | 1.96 µM | 3.29 µM | 5.62 µM | 3.97 µM | 3.15 µM | 9.37 µM | 3.12 µM |
| COc1ccc2nc3cc(Cl)ccc3c(NCCCNCCC(C)O)c2c1 (centres undefined) | 2.25 µM | 1.29 µM | 3.6 µM | 2.21 µM | 2.52 µM | – | 2.54 µM | 0.351 µM | 1.72 µM | 0.704 µM | 0.217 µM | 0.735 µM | 0.714 µM | 0.523 µM | 0.156 µM | 1.74 µM | 0.426 µM |
| O=C(O)c1ccc(N/C=C2\C(=O)c3ccccc3OC2O)cc1O (centres undefined) | 51.1 µg/mL | 76.4 µg/mL | 26.6 µg/mL | 38.9 µg/mL | 134 µg/mL | – | 97.2 µg/mL | 12.6 µg/mL | 81.8 µg/mL | 23.5 µg/mL | 30.5 µg/mL | 6.17 µg/mL | 10 µg/mL | 21.8 µg/mL | 5.21 µg/mL | 41 µg/mL | 22 µg/mL |
| Cc1cc(C)c(O)c(CN(C)Cc2cc(Cl)cc(Cl)c2O)c1 | 19.6 µM | 15.3 µM | 16.8 µM | 20.6 µM | 19.2 µM | – | 12.1 µM | 3.28 µM | 14.3 µM | 6.52 µM | 4.99 µM | 3.41 µM | 6.13 µM | 3.26 µM | 3.69 µM | 24.5 µM | 2.78 µM |
| C=CCC1(O)c2cccc(NCCO)c2C(=O)c2c(NCCO)cccc21 | > 100 µM | > 100 µM | > 100 µM | > 100 µM | > 100 µM | – | > 100 µM | > 100 µM | > 100 µM | > 100 µM | > 100 µM | > 100 µM | > 100 µM | > 100 µM | > 100 µM | > 100 µM | > 100 µM |
| O=C(O)c1cc(N=Cc2ccccc2O)cc(C(=O)O)c1 | > 100 µM | > 100 µM | > 100 µM | > 100 µM | > 100 µM | – | > 100 µM | – | > 100 µM | – | – | – | – | – | – | > 100 µM | – |
| O=c1cc(-c2ccccc2)[nH]n1-c1nc2ccccc2[nH]1 | 66.8 µM | > 100 µM | > 100 µM | > 100 µM | > 100 µM | – | > 100 µM | 3.89 µM | > 100 µM | 9.32 µM | 27.8 µM | 3.44 µM | 17.7 µM | 8.67 µM | 5.86 µM | > 100 µM | 4.5 µM |
| Cc1cc(Nc2ncnc3ccc(NC4=NC(C)(C)CO4)cc23)ccc1Oc1ccn2ncnc2c1 | 46.4 µM and > 10 µM | 32.3 µM and > 10 µM | > 65.9 µM | 35.7 µM and > 10 µM | > 91.9 µM | – | 55.1 µM and > 10 µM | 13.7 µM and > 10 µM | 31.5 µM and > 10 µM | 20.1 µM and > 10 µM | 14.3 µM and > 10 µM | 8.92 µM and > 10 µM | 14.7 µM and > 10 µM | 18.9 µM and > 10 µM | 14.7 µM and > 10 µM | 43.8 µM and > 10 µM | 8.75 µM and > 10 µM |
| C=CC(=O)N[C@H]1CCOC[C@H]1Nc1ncc2cc(-c3c(Cl)c(OC)cc(OC)c3Cl)ccc2n1 | 31.7 µM | 29.5 µM | 84.4 µM | 64 µM | > 100 µM | – | > 100 µM | 5.65 µM | 51 µM | 11.9 µM | 13.8 µM | 7.89 µM | 13.1 µM | 16.2 µM | 10.6 µM | > 100 µM | 39.3 µM |
| CO[C@@H]1/C=C(C)/C=C/[C@@H](C)/C=C(\C)C(=O)OC(/C(C)=C/C=C(\C)CNC(=O)[C@H](CO)NC=O)[C@@H](C)/C=C/C=C/[C@H](OC)CC/C=C(C)/C=C/C1 (some centres undefined) | – | 0.627 µM | 6.88 µM | 0.0261 µM | 1.09 µM | – | 3.18 µM | < 0.005 µM | 9.14 µM | < 0.005 µM | 0.00816 µM | 0.0225 µM | 0.0101 µM | < 0.005 µM | < 0.005 µM | > 11.9 µM | 0.0105 µM |
